Laboratory results from patent US9109004B2, “Progesterone receptor antagonists” (Bayer Intellectual Property GmbH, priority 2010, dated 2015).

Biological target: T1, human progesterone receptor A (Homo sapiens, UniProt P06401)
T1 construct: expressed in transfected cells; host or cells: SK-N-MC human neuroblastoma cells, stably transfected
T1 sequence (P06401 1-769 isoform P06401-2): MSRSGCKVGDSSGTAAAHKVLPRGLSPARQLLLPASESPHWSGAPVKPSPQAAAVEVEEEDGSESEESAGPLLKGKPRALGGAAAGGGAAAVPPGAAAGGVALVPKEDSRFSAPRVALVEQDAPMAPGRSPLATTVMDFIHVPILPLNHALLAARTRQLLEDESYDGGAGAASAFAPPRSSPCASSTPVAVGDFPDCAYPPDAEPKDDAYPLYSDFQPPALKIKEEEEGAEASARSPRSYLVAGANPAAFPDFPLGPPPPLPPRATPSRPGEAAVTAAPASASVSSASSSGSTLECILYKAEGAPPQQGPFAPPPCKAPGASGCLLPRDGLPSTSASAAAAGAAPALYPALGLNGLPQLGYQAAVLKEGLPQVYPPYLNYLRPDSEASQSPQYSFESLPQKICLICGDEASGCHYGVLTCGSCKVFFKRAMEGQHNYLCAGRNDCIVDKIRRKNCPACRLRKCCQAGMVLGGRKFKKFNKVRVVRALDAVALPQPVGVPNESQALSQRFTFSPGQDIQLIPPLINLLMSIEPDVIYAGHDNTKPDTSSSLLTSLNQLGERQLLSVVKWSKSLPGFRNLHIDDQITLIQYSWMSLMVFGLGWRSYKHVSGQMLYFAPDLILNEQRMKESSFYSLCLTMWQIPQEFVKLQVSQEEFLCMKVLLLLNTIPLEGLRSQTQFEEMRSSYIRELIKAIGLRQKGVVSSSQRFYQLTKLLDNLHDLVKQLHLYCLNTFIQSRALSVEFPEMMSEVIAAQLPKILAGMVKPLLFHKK
Assay: Progesterone-receptor-antagonistic action in stably transfected SK-N-MC cells, MTV-LUC reporter (PR-A)
Type: cell-based
Settings: antagonistic potency vs 0.1 nmol/l promegestone, 24 hours, luciferase
Description: Progesterone-Receptor-Antagonistic Action in Stable Transfectants of Human Neuroblastoma Cells (SK-N-MC Cells) with the Human Progesterone A or Progesterone B Receptor and an MTV-LUC Reporter Construct
SK-N-MC cells (human neuroblastoma cells) that have been stably transfected with plasmids that express the human progesterone receptor B (pRChPR-B-neo) or the human progesterone receptor A (pRChPR-A-neo) and a reporter construct (pMMTV-LUC), were incubated for 24 hours either in the absence (negative control) or in the presence of increasing amounts of the particular test compound (0.01 nmol/l, 0.1 nmol/l, 1 nmol/l, 10 nmol/l, 100 nmol/l and 1 μmol/l), to determine the agonistic efficacy. As positive control of reporter gene induction, the cells were treated with the synthetic gestagen promegestone (0.01 nmol/l, 0.1 nmol/l, 1 nmol/l, 10 nmol/l, 100 nmol/l and 1 μmol/l). For determination of the antagonistic activity, the cells were treated with 0.1 nmol/l promegestone and additionally with increasing amounts of the particular test compound (0.01 nmol/l, 0.1 nmol/l, 1 nmol/l, 10 nmol/l, 100 nmol/l and 1 μmol/l). The activity of the reporter gene LUC (LUC=luciferase) was determined in the cell lysates and was measured as RLU (relative light units). All measured values are given as % efficacy and as EC50 or IC50 concentrations.

| Structure (SMILES) | IC50 |
| --- | --- |
| CN(CCc1ccncc1)C(=O)c1ccc([C@H]2C[C@@]3(C)[C@@H](CC[C@@]3(O)C(F)(F)C(F)(F)F)[C@@H]3CCC4=CC(=O)CCC4=C32)cc1 [Example 58, 4-[(11β,17β)-17-hydroxy-3-oxo-17-(pentafluoroethyl)estra-4,9-dien-11-yl]-N-methyl-N-[2-(pyridin-4-yl)ethyl]benzamide] | 5.7 nM |
| CCNC(=O)c1ccc([C@H]2C[C@@]3(C)[C@@H](CC[C@@]3(O)C(F)(F)C(F)(F)F)[C@@H]3CCC4=CC(=O)CCC4=C32)cc1 [Example 19, N-ethyl-4-[(11β,17β)-17-hydroxy-3-oxo-17-(pentafluoroethyl)estra-4,9-dien-11-yl]benzamide] | 1.4 nM |
| C[C@]12C[C@H](c3ccc(C(=O)Nc4ccncc4)cc3)C3=C4CCC(=O)C=C4CC[C@H]3[C@@H]1CC[C@@]2(O)C(F)(F)C(F)(F)F [Example 14, 4-[(11β,17β)-17-hydroxy-3-oxo-17-(pentafluoroethyl)estra-4,9-dien-11-yl]-N-(pyridin-4-yl)benzamide] | 0.42 nM |
| CC(=O)NCCNC(=O)c1ccc([C@H]2C[C@@]3(C)[C@@H](CC[C@@]3(O)C(F)(F)C(F)(F)F)[C@@H]3CCC4=CC(=O)CCC4=C32)cc1 [Example 37, N-(2-acetamidoethyl)-4-[(11β,17β)-17-hydroxy-3-oxo-17-(pentafluoroethyl)estra-4,9-dien-11-yl]benzamide] | 385 nM |
| C[C@]12C[C@H](c3ccc(C(=O)NC4CC4)cc3)C3=C4CCC(=O)C=C4CC[C@H]3[C@@H]1CC[C@@]2(O)C(F)(F)C(F)(F)F [Example 42, N-cyclopropyl-4-[(11β,17β)-17-hydroxy-3-oxo-17-(pentafluoroethyl)estra-4,9-dien-11-yl]benzamide] | 7.3 nM |
| COC(=O)c1ccc(NC(=O)c2ccc([C@H]3C[C@@]4(C)[C@@H](CC[C@@]4(O)C(F)(F)C(F)(F)F)[C@@H]4CCC5=CC(=O)CCC5=C43)cc2)cc1 [Example 38, methyl-4-({4-[(11β,17β)-17-hydroxy-3-oxo-17-(pentafluoroethyl)estra-4,9-dien-11-yl]benzoyl}amino)benzoate] | 1.88 nM |
| C[C@]12C[C@H](c3ccc(C(=O)NCCc4ccccc4)cc3)C3=C4CCC(=O)C=C4CC[C@H]3[C@@H]1CC[C@@]2(O)C(F)(F)C(F)(F)F [Example 16, 4-[(11β,17β)-17-hydroxy-3-oxo-17-(pentafluoroethyl)estra-4,9-dien-11-yl]-N-(2-phenylethyl)benzamide] | 0.67 nM |
| C[C@]12C[C@H](c3ccc(C(=O)Nc4ccc(C(=O)O)cc4)cc3)C3=C4CCC(=O)C=C4CC[C@H]3[C@@H]1CC[C@@]2(O)C(F)(F)C(F)(F)F [Example 78, 4-({4-[(11β,17β)-17-Hydroxy-3-oxo-17-(pentafluoroethyl)estra-4,9-dien-11-yl]benzoyl}amino)benzoic acid] | 9.6 nM |
| C[C@]12C[C@H](c3ccc(C(=O)N4CCN(CCc5ccccc5)CC4)cc3)C3=C4CCC(=O)C=C4CC[C@H]3[C@@H]1CC[C@@]2(O)C(F)(F)C(F)(F)F [Example 44, (11β,17β)-17-hydroxy-17-(pentafluoroethyl)-11-(4-{[4-(2-phenylethyl)piperazin-1-yl]carbonyl}phenyl)estra-4,9-dien-3-one] | 25 nM |
| CN(CCc1cccnc1)C(=O)c1ccc([C@H]2C[C@@]3(C)[C@@H](CC[C@@]3(O)C(F)(F)C(F)(F)F)[C@@H]3CCC4=CC(=O)CCC4=C32)cc1 [Example 72, 4-[(11β,17β)-17-hydroxy-3-oxo-17-(pentafluoroethyl)estra-4,9-dien-11-yl]-N-methyl-N-[2-(pyridin-3-yl)ethyl]benzamide] | 1.4 nM |
| C[C@]12C[C@H](c3ccc(C(=O)N4CCc5ccccc5C4)cc3)C3=C4CCC(=O)C=C4CC[C@H]3[C@@H]1CC[C@@]2(O)C(F)(F)C(F)(F)F [Example 39, (11β,17β)-11-[4-(3,4-dihydroisoquinolin-2(1H)-ylcarbonyl)phenyl]-17-hydroxy-17-(pentafluoroethyl)estra-4,9-dien-3-one] | 9.5 nM |
| C[C@]12C[C@H](c3ccc(C(=O)N4CCN(Cc5ccccn5)CC4)cc3)C3=C4CCC(=O)C=C4CC[C@H]3[C@@H]1CC[C@@]2(O)C(F)(F)C(F)(F)F [Example 68, (11β,17β)-17-hydroxy-17-(pentafluoroethyl)-11-(4-{[4-(pyridin-2-ylmethyl)piperazin-1-yl]carbonyl}phenyl)estra-4,9-dien-3-one] | 16 nM |
| C[C@]12C[C@H](c3ccc(C(=O)Nc4ccc(Cl)cc4)cc3)C3=C4CCC(=O)C=C4CC[C@H]3[C@@H]1CC[C@@]2(O)C(F)(F)C(F)(F)F [Example 26, N-(4-chlorophenyl)-4-[(11β,17β)-17-hydroxy-3-oxo-17-(pentafluoroethyl)estra-4,9-dien-11-yl]benzamide] | 28 nM |
| C[C@]12C[C@H](c3ccc(C(=O)Nc4cccc(C(=O)O)c4)cc3)C3=C4CCC(=O)C=C4CC[C@H]3[C@@H]1CC[C@@]2(O)C(F)(F)C(F)(F)F [Example 77, 3-({4-[(11β,17β)-17-Hydroxy-3-oxo-17-(pentafluoroethyl)estra-4,9-dien-11-yl]benzoyl}amino)benzoic acid] | 140 nM |
| C[C@]12C[C@H](c3ccc(C(=O)Nc4ccccc4C(=O)O)cc3)C3=C4CCC(=O)C=C4CC[C@H]3[C@@H]1CC[C@@]2(O)C(F)(F)C(F)(F)F [Example 76, 2-({4-[(11β,17β)-17-Hydroxy-3-oxo-17-(pentafluoroethyl)estra-4,9-dien-11-yl]benzoyl}amino)benzoic acid] | 0.5 nM |
| CN(Cc1ccccn1)C(=O)c1ccc([C@H]2C[C@@]3(C)[C@@H](CC[C@@]3(O)C(F)(F)C(F)(F)F)[C@@H]3CCC4=CC(=O)CCC4=C32)cc1 [Example 31, 4-[(11β,17β)-17-hydroxy-3-oxo-17-(pentafluoroethyl)estra-4,9-dien-11-yl]-N-methyl-N-(pyridin-2-ylmethyl)benzamide] | 10.8 nM |
| COc1ccccc1NC(=O)c1ccc([C@H]2C[C@@]3(C)[C@@H](CC[C@@]3(O)C(F)(F)C(F)(F)F)[C@@H]3CCC4=CC(=O)CCC4=C32)cc1 [Example 23, 4-[(11β,17β)-17-hydroxy-3-oxo-17-(pentafluoroethyl)estra-4,9-dien-11-yl]-N-(2-methoxyphenyl)benzamide] | 86 nM |
| C[C@]12C[C@H](c3ccc(C(=O)NCc4ccncc4)cc3)C3=C4CCC(=O)C=C4CC[C@H]3[C@@H]1CC[C@@]2(O)C(F)(F)C(F)(F)F [Example 21, 4-[(11β,17β)-17-hydroxy-3-oxo-17-(pentafluoroethyl)estra-4,9-dien-11-yl]-N-(pyridin-4-ylmethyl)benzamide] | 51 nM |
| CN(Cc1cccnc1)C(=O)c1ccc([C@H]2C[C@@]3(C)[C@@H](CC[C@@]3(O)C(F)(F)C(F)(F)F)[C@@H]3CCC4=CC(=O)CCC4=C32)cc1 [Example 32, 4-[(11β,17β)-17-hydroxy-3-oxo-17-(pentafluoroethyl)estra-4,9-dien-11-yl]-N-methyl-N-(pyridin-3-ylmethyl)benzamide] | 375 nM |
